In PubChem BioAssay (NCI):
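Each compound was tested at five concentrations against cells in 96-well plates for 48 hours. GI50 marks 50% less growth. At the TGI there is no net growth.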

Experiments:
Assay in all cases: NCI anticancer screen, dose series, 48 h
[1] = tested on: SW-620 colon
[2] = tested on: HT29 colon
[3] = tested on: KM12 colon
[4] = tested on: SF-268 CNS
[5] = tested on: MOLT-4 leukemia
[6] = tested on: NCI-H460 lung
[7] = tested on: SK-MEL-2 melanoma
[8] = tested on: SNB-75 CNS
[9] = tested on: RXF 393 renal
[10] = tested on: HOP-92 NSCLC

Structure (SMILES)	TGI [1]	TGI [2]	TGI [3]	TGI [4]	TGI [5]	TGI [6]	TGI [7]	TGI [8]	TGI [9]	TGI [10]	GI50 [1]	GI50 [2]	GI50 [3]	GI50 [4]	GI50 [5]	GI50 [9]	GI50 [10]	GI50 [6]	GI50 [7]	GI50 [8]
COc1cc(-c2oc3c(OC)c(O)c(OC)c(O)c3c(=O)c2OC)cc(OC)c1OC	> 100 µM	> 100 µM	> 100 µM	71.5 µM	> 100 µM	> 100 µM	> 100 µM	60.2 µM												
C=C(C)COc1ccc2c(c1)CCC1C2CCC2(C)C(=O)/C(=N/O)CC12 (configuration not stated)	9.94 µM	2.72 µM	5.77 µM	23.3 µM	6.05 µM	3.14 µM	14.1 µM	11.9 µM	6.78 µM	10.4 µM										
COc1ccc2c(c1)OCC1c3cc(OC)c4ccccc4c3OC21 (configuration not stated)	> 100 µM	> 100 µM	> 100 µM	> 100 µM	> 100 µM	> 100 µM	77.7 µM	47.9 µM	46 µM	> 100 µM	3.98 µM	3.84 µM	4.82 µM	12.1 µM	9.82 µM	9.41 µM	22.3 µM	4.44 µM	12.2 µM	11.8 µM
CCCCCOC(=O)Nc1nc(=O)n(C2OC(C)C(O)C2O)cc1F (configuration not stated)	> 10000 µM	> 10000 µM	> 10000 µM	> 10000 µM	> 10000 µM		> 10000 µM			> 10000 µM	> 10000 µM	> 10000 µM	> 10000 µM	> 10000 µM	> 10000 µM		> 10000 µM		> 10000 µM	
COc1cc(C2C(C(=O)NCc3ccccc3)=C(C)NC(C)=C2C(=O)NCc2ccccc2)ccc1O	> 100 µM	38 µM		> 100 µM	55.8 µM	> 100 µM	61.2 µM	> 100 µM	77.8 µM	89.2 µM										
O=C1CCc2cc(Br)ccc2O1	> 100 µM	> 100 µM		> 100 µM	> 100 µM	> 100 µM	> 100 µM	92.8 µM	91.2 µM	> 100 µM										
Clc1nc(Cl)c2ncn(-c3ccccc3)c2n1	5.74 µM	13.5 µM	25.8 µM	15.4 µM	52.3 µM	23.5 µM	27.1 µM	13.9 µM	18.8 µM	5.51 µM	2.08 µM	3.87 µM	12.8 µM	3.26 µM	7.95 µM	5.66 µM	2.15 µM	6.24 µM	13.8 µM	2.93 µM
COc1ccc(-c2nc3sccn3c2-c2ccnc(NCCNS(=O)(=O)c3ccc(C(F)(F)F)cc3)n2)cc1	38.9 µM	> 100 µM	36.2 µM	50.9 µM	> 100 µM	11.6 µM	9.26 µM	10.7 µM	63.2 µM	2.51 µM	4.24 µM	2.45 µM	1.36 µM	1.41 µM	0.503 µM	2.66 µM	0.153 µM	2 µM	3.04 µM	1.98 µM
Nc1nc(N)c2cc(S(=O)(=O)c3ccc4ccccc4c3)ccc2n1	> 100 µM	> 100 µM	> 100 µM	> 58.9 µM	> 100 µM	> 100 µM	> 77.8 µM	12.3 µM	48 µM	34.8 µM	0.611 µM	2.34 µM			> 100 µM	3.81 µM				
Cc1ccc(NC(=S)NNC(=S)Nc2ccc(C)cc2)cc1	> 100 µM	> 100 µM	> 100 µM	> 100 µM		> 100 µM	8.68 µM	67.3 µM	> 100 µM	> 100 µM	3.81 µM	3.61 µM	3.63 µM	6.05 µM		5.56 µM	6.43 µM	3.89 µM	2.66 µM	3.39 µM
O=C(c1ccccc1)n1cc(/C=C/[N+](=O)[O-])c2ccccc21	38.1 µM	> 100 µM	32.5 µM	52.3 µM	40.3 µM	43.3 µM	35.6 µM	82.1 µM	36.9 µM	54.1 µM										
NS(=O)(=O)c1ccc(N=Nc2c(O)[nH]c3ccc(C(=O)NCCCn4ccnc4)cc23)cc1	> 25 µM	> 25 µM	> 25 µM	> 25 µM	> 25 µM	> 25 µM	> 25 µM	> 25 µM	> 25 µM	> 25 µM	> 25 µM	> 25 µM	> 25 µM	> 25 µM	> 25 µM	> 25 µM	> 25 µM	> 25 µM	> 25 µM	> 25 µM
CC[O-].CC[O-].O=C1C=C([O-])C(=O)c2ccccc21.O=C1C=C([O-])C(=O)c2ccccc21.[Ti+4]	> 100 µM	> 100 µM	> 100 µM	> 100 µM	> 100 µM	> 92.9 µM	> 100 µM	> 90.1 µM	> 100 µM	> 100 µM	90.5 µM	22.4 µM	> 90.8 µM	> 100 µM	> 100 µM	> 100 µM	> 100 µM	7.76 µM	9.89 µM	4.99 µM
CCCCCCCCCCCCCCCC(=O)NS(=O)(=O)OC[C@H]1O[C@@H](n2cnc3c(N)ncnc32)[C@H](O)[C@@H]1O	10.1 µM	0.342 µM	3.01 µM	1.28 µM	8.92 µM	8.6 µM	2.83 µM	1.29 µM	< 0.0284 µM		0.0412 µM	0.0402 µM	< 0.0421 µM	< 0.0481 µM	0.962 µM	< 0.0161 µM	< 0.024 µM	0.107 µM	0.588 µM	< 0.0471 µM
CCN(N=O)C1C2(CCCC2)NC(=O)C12CCCC2 (configuration not stated)	> 100 µM	> 100 µM	> 100 µM	> 100 µM	> 100 µM	> 100 µM		> 100 µM	> 100 µM											
Cc1cc(S(=O)(=O)Nc2nc3ccccc3c(=O)n2Cc2ccco2)c(S)cc1Cl	> 100 µM	> 100 µM	> 100 µM	> 100 µM	> 100 µM	> 100 µM		> 100 µM	> 100 µM	> 100 µM	30.7 µM	46.2 µM	30.1 µM	40.6 µM	18.6 µM	61.7 µM	> 100 µM	33.3 µM		97 µM
CCCCCc1cc(/C=C2/N=C(c3ccc[nH]3)C=C2OC)[nH]c1C	0.206 µM	0.143 µM	0.364 µM	1.13 µM	0.134 µM	1.26 µM		< 0.0124 µM	0.197 µM	0.0213 µM										
O=C(O)C1=Cc2cccc3cccc(c23)C1=O	> 100 µM	> 100 µM	> 100 µM	> 100 µM	> 100 µM	> 100 µM	> 100 µM	> 100 µM	> 100 µM											

Structure (SMILES)	TGI [1]	TGI [2]	TGI [3]	TGI [4]	TGI [5]	TGI [6]	TGI [7]	TGI [8]	TGI [9]	TGI [10]	GI50 [1]	GI50 [2]	GI50 [3]	GI50 [4]	GI50 [5]	GI50 [9]	GI50 [10]	GI50 [6]	GI50 [7]	GI50 [8]
CCOC(=O)CCc1c(C)c2c(OC)cc(OC)cc2oc1=O	> 100 µM	> 100 µM	> 100 µM	> 100 µM		> 100 µM	> 100 µM	> 100 µM	82.4 µM	> 100 µM										
OC1(C(Sc2ccccc2)Sc2ccccc2)CCCCCC1	> 100 µM		> 100 µM	> 100 µM	> 100 µM	75.5 µM	41.2 µM	> 100 µM		56.5 µM										
CCOC(=O)C1=C(C)NC2SC(=O)/C(=C\c3cccc(Cl)c3)N2C1c1ccccc1 (configuration not stated)	> 100 µM	> 100 µM	> 100 µM	> 100 µM		> 100 µM	> 100 µM	> 100 µM	> 100 µM	> 100 µM	> 100 µM	> 100 µM	> 100 µM	> 100 µM		> 100 µM	> 100 µM	> 100 µM	> 100 µM	> 100 µM
Cc1ccc2ncnc(N(C)C3CCCCC3)c2c1			> 100 µM	89.8 µM	63.6 µM	> 100 µM	> 100 µM		17.9 µM	42.7 µM			35.6 µM	23.7 µM	14.4 µM	3.84 µM	14.6 µM	25.3 µM	37.5 µM	
N#CC1=C(N)N=C(N2CCOCC2)C(C#N)C12Nc1ccccc1S2 (configuration not stated)	> 100 µM		33.6 µM	27.5 µM	> 100 µM	37.1 µM	95 µM		> 100 µM	> 100 µM	23.2 µM		15 µM	8.05 µM	23.4 µM	19 µM	41.3 µM	16.6 µM	35.2 µM	
O=C(Cc1cc(O)ccc1O)NO	54.1 µM		> 100 µM	> 100 µM	41 µM	> 100 µM	> 100 µM		> 100 µM	59.6 µM	25.1 µM		> 100 µM	> 100 µM	19.7 µM	71.7 µM	21.3 µM	89.8 µM	> 100 µM	
CC1(C)N=C(N)N=C(N)N1c1ccc(OCC(=O)Nc2ccc(S(=O)(=O)F)cc2Cl)c(Cl)c1	> 100 µM	> 100 µM	> 100 µM	> 100 µM	> 100 µM	> 100 µM	> 100 µM	> 100 µM	> 100 µM		1.08 µM	2.57 µM	4.63 µM	3.79 µM	6.74 µM	17.5 µM		0.591 µM	> 100 µM	5.72 µM
O=c1cccccc1[O-].O=c1cccccc1[O-].O=c1cccccc1[O-].[Nd+3]	> 100 µM	> 100 µM	> 100 µM		> 100 µM	> 100 µM	97.3 µM		50.2 µM	> 100 µM										
CC(=O)OCc1nnn2c1C(OC(C)=O)CC2 (configuration not stated)	> 100 µM	> 100 µM	> 100 µM		> 100 µM	> 100 µM	> 100 µM	> 100 µM	> 100 µM	> 100 µM										
NC(=O)c1c[nH]c2ncnc(N)c12	> 100 µM	> 100 µM	> 100 µM	> 100 µM	> 100 µM	> 100 µM	> 100 µM	59.3 µM			27.1 µM	26.6 µM	24.8 µM	39.3 µM	32.9 µM			45.1 µM	47.2 µM	13.3 µM
CC(=O)OC(COc1ccc2c(c1)[n+]([O-])nc(N)[n+]2[O-])CN1CCCCC1 (configuration not stated)	> 100 µM	23.1 µM	50.4 µM		14.8 µM	21.8 µM	26.4 µM	46.7 µM	> 100 µM	> 100 µM										
CNC(=O)/C=C/C1=CN2C(=O)c3ccc(C)c(O)c3NC(OC)C2C1 (configuration not stated)	24.4 µM	3.29 µM	< 0.0183 µM	0.08 µM	> 8.39 µM	1.03 µM	< 0.01 µM	< 0.0269 µM	< 0.01 µM											
C[C@@H](NC1CCCC[C@@H]1O)c1ccccc1 (some centres not stated)	> 100 µM	> 100 µM	> 100 µM		> 100 µM	> 100 µM	> 100 µM	> 100 µM	> 100 µM	> 100 µM										
OC1CC(O)O[C@H](c2ccccc2)C1 (some centres not stated)	> 100 µM	> 100 µM	> 100 µM	> 100 µM	> 100 µM	> 100 µM		> 100 µM	> 100 µM	> 100 µM										
Cc1[nH]c(=O)n2c(C)nnc2c1C(=O)O	> 100 µM	> 100 µM	> 100 µM	> 100 µM	> 100 µM	> 100 µM	> 100 µM		> 100 µM	> 100 µM										
CC(=O)OC(C(=O)[O][Ge]([CH3])([CH3])[CH3])c1ccccc1 (configuration not stated)	> 100 µM	> 100 µM	> 100 µM	> 100 µM		> 100 µM		> 100 µM	7.09 µM	> 100 µM	> 100 µM	> 100 µM	> 100 µM	> 100 µM		0.264 µM	> 100 µM	> 100 µM		> 100 µM
CC1=C2CC[C@@]3(C)C(=CCC3O)C2(C)CCC1=O (some centres not stated)	> 100 µM	> 100 µM	> 100 µM	> 100 µM	> 100 µM	> 100 µM		> 100 µM	> 100 µM	> 100 µM										
